Consider 20 molecules from article PMC4873368 (Cancer research, 2016).

The subject of experiment [1] is human T cells. In words: ConA-induced T cell expansion from human PBMCs. Particulars: 168 h, read-out: EC50 T cells. It counts as cell-based.
Experiment [2] concerns A2780 cells. In words: A2780 cell proliferation screen. It counts as cell-based. Particulars: Homo sapiens, A2780, 72 h, read-out: EC50 A2780.
Experiment [3] concerns human T cells. In words: Cytokine rescue of human T cell proliferation from trametinib. It is filed as cell-based. The note with it: aAPCs, 200 nM trametinib, 7 days; IL-2 20 U/ml, IL-7 2 ng/ml, IL-15 10 ng/ml, IL-21 100 ng/ml, IL-27 50 ng/ml, ALT-803 35.7 ng/ml.
Experiment [4] has as its system MEK. In words: Brpkp110 cells MEK signaling, Western blot. It counts as cell-based, mouse. Particulars: 8 nM or 200 nM trametinib, 18 hr.
The test system of experiment [5] is Brpkp110 tumors. The note with it: trametinib 1.0 mg/kg oral gavage days 3-13, single intervention.
For experiment [6], the system named is human T cells. Nature of the experiment: Human T cell proliferation with aAPCs. It is filed as cell-based. Particulars: human PBMCs, 7 days.
The test system of experiment [7] is ERK1/2 phosphorylation. In words: TCR ligation of human CD8 T cells, Western blot p-ERK1/2. It counts as cell-based. Particulars: within 10 minutes post-activation, trametinib 8 nM.

As to `CN(C)CC[C@H](CSc1ccccc1)Nc1ccc(S(=O)(=O)NC(=O)c2ccc(N3CCN(Cc4ccccc4-c4ccc(Cl)cc4)CC3)cc2)cc1[N+](=O)[O-]` [ABT-737], in experiment [1], the EC50 (as a rule, the concentration that produces a half-maximal response) worked out at 61 nM. As for `COc1ncc(-c2ccc3nccc(-c4ccnnc4)c3c2)cc1NS(=O)(=O)c1ccc(F)cc1F` [GSK2126458 (omipalisib), omipalisib], the EC50 amounted to 0.237 nM in experiment [1] and 155 nM in experiment [2]. In the case of `Cn1cnc2c(F)c(Nc3ccc(Br)cc3Cl)c(C(=O)NOCCO)cc21` [AZD6244 (selumetinib), selumetinib], the EC50 in experiment [2] was over 25000 nM. As for `COc1ccc(-c2ccc3c(N4CCOC[C@@H]4C)nc(N4CCOC[C@@H]4C)nc3n2)cc1CO` [AZD8055], the EC50 came to 13.6 nM in experiment [1] and 78.3 nM in experiment [2]. As to `CN(C)C(=O)c1cc2cnc(Nc3ccc(N4CCNCC4)cn3)nc2n1C1CCCC1` [LEE011], in experiment [2], the EC50 is over 25000 nM.

Turning to `Cc1[nH]c2ccccc2c1CCNCc1ccc(/C=C/C(=O)NO)cc1` [LBH589 (panobinostat), panobinostat], the EC50 in experiment [1] was determined as 25 nM. Still for that read-out and setting: next, `CC(=O)c1c(C)c2cnc(Nc3ccc(N4CCNCC4)cn3)nc2n(C2CCCC2)c1=O` [PD0332991 (palbociclib), palbociclib]: 110 nM. On to `Cn1c(=O)n(-c2ccc(C(C)(C)C#N)cc2)c2c3cc(-c4cnc5ccccc5c4)ccc3ncc21` [BEZ235 (dactolisib), dactolisib], for which the EC50 in experiment [1] amounted to 2.4 nM; in experiment [2] it was 21 nM. `CCCS(=O)(=O)Nc1ccc(F)c(C(=O)c2c[nH]c3ncc(-c4ccc(Cl)cc4)cc23)c1F` [PLX4032 (vemurafenib), vemurafenib]: the EC50 in experiment [2] was over 25000 nM. As for `CCN(CCCOc1ccc2c(Nc3cc(CC(=O)Nc4cccc(F)c4)n[nH]3)ncnc2c1)CCOP(=O)(O)O` [AZD1152 (barasertib), barasertib], the EC50 in experiment [2] is over 25000 nM.

With IL-21: human IL-21 cytokine, in experiment [3], the “Rescue of human T cell proliferation in the presence of trametinib” value (“Rescue of human T cell proliferation” below) is listed as “no significant rescuing effect”. `Cn1ncc(Cl)c1-c1cc(C(=O)N[C@H](CN)Cc2ccc(F)c(F)c2)oc1Cl` [GSK2141795]: the EC50 came out at 96 nM in experiment [1] and 2350 nM in experiment [2]. Regarding `Cc1cc([C@@H](C)Nc2ccccc2C(=O)O)c2nc(N3CCOCC3)cc(=O)n2c1` [AZD6482], the EC50 in experiment [2] was over 25000 nM. As to `CC(=O)Nc1cccc(-n2c(=O)n(C3CC3)c(=O)c3c(Nc4ccc(I)cc4F)n(C)c(=O)c(C)c32)c1` [GSK1120212 (trametinib), trametinib], in experiment [4], the “Signaling through MEK in Brpkp110 cells” value is reported as “can be inhibited”. The “Growth of Brpkp110 tumors” value in experiment [5] is “significantly reduced the growth”. Besides, the “Proliferation of human T cells in response to aAPC coated with agonistic CD3 and CD28 antibodies” value in experiment [6] is recorded as “Comparable results”. The EC50 in experiment [2] is over 25000 nM. On to `CN1CCN(CCOc2cc(OC3CCOCC3)c3c(Nc4c(Cl)ccc5c4OCO5)ncnc3c2)CC1` [AZD0530 (saracatinib), saracatinib], for which, in experiment [2], the EC50 is over 25000 nM.

As to “IL-15: Recombinant human IL-15 (Novoprotein)”, the “Rescue of TCR-induced ERK1/2 phosphorylation from MEK inhibition” value in experiment [7] is “can rescue”. Further, the “Rescue of human T cell proliferation” value in experiment [3] is “able to individually rescue the proliferation”. In the case of `COc1cc(Nc2ncc3c(n2)-c2ccc(Cl)cc2C(c2c(F)cccc2OC)=NC3)ccc1C(=O)O` [MLN8237 (alisertib), alisertib], in experiment [2], the concentration giving a half-maximal response (EC50) was over 25000 nM. As to `C[C@]1(O)C[C@@H](c2nc(-c3ccc4ccc(-c5ccccc5)nc4c3)c3c(N)nccn32)C1` [OSI-906 (linsitinib), linsitinib], the EC50 in experiment [1] and in experiment [2] was over 25000 nM throughout.

B1: IL-7: mouse IL-7 (Peprotech) (protein, UniProt P10168 26-154, looked up)
Interleukin-7: ECHIKDKEGKAYESVLMISIDELDKMTGTDSNCPNNEPNFFRKHVCDDTKEAAFLNRAARKLKQFLKMNISEEFNVHLLTVSQGTQTLVNCTSKEEKNVKEQKKNDACFLKRLLREIKTCWNKILKGSI
For the molecule B1, the “Rescue of human T cell proliferation” value in experiment [3] is “able to individually rescue the proliferation”.

B2: IL-27: human IL-27 (eBioscience) (protein, UniProt Q8NEV9 29-243; Q14213 21-229, looked up)
Interleukin-27 subunit alpha: FPRPPGRPQLSLQELRREFTVSLHLARKLLSEVRGQAHRFAESHLPGVNLYLLPLGEQLPDVSLTFQAWRRLSDPERLCFISTTLQPFHALLGGLGTQGRWTNMERMQLWAMRLDLRDLQRHLRFQVLAAGFNLPEEEEEEEEEEEEERKGLLPGALGSALQGPAQVSWPQLLSTYRLLHSLELVLSRAVRELLLLSKAGHSVWPLGFPTLSPQP
Interleukin-27 subunit beta: RKGPPAALTLPRVQCRASRYPIAVDCSWTLPPAPNSTSPVSFIATYRLGMAARGHSWPCLQQTPTSTSCTITDVQLFSMAPYVLNVTAVHPWGSSSSFVPFITEHIIKPDPPEGVRLSPLAERQLQVQWEPPGSWPFPEIFSLKYWIRYKRQGAARFHRVGPIEATSFILRAVRPRARYYVQVAAQDLTDYGELSDWSLPATATMSLGK
As to B2, the “Rescue of human T cell proliferation” value in experiment [3] was “no significant rescuing effect”.
